Values of other authors, collected in patent US8334001B2, “Composition comprising mucilaginous polysaccharides derived from aloe barbadensis and method for obtaining same and use thereof” (Pharmabrand S.A., priority 2007, dated 2012).
Read-outs that look alike come from different tables or passages of the source.

Row | Substance | activation of the necrosis factor, kappa B (necrosis factor, kappa B; concentration of 200 μg/ml) | effect on TNF-alfa (TNF-alfa) | activation of the necrosis factor, kappa B (necrosis factor, kappa B; concentrations of only 0.015% of the aloeride)
1 | acemannan | produces an activation | – | –
2 | aloeride | – | increases | the effect is shown
